Measurements reported in patent US20230219898A1, “COMPOUNDS AND METHODS FOR BLOCKING APOPTOSIS AND INDUCING AUTOPHAGY” (President and Fellows of Harvard College, priority 2020, published 2023).

Legend:
[1] = target: T1, RIPK1 (Homo sapiens, UniProt Q13546); experiment: Activation of overexpressed Flag-RIPK1 in HEK293T cells (p-S166); assay type: cell-based; conditions: 10 μM, 12 h
T1 construct: expressed in transfected cells; host or cells: HEK293T
Description: The activation of RIPK1 was determined by immunoblotting using p-S166 RIPK1 antibody.

[2] = test system: cleaved caspase-3 in Jurkat cells; experiment: Cleaved caspase-3 immunoblot in Velcade-treated cells; assay type: cell-based, human; conditions: FIG. 9a, 9b; Jurkat and SH-SY5Y cells, 10 μM, 12 h and 24 h
Description: The levels of cleaved caspase-3 were determined by immunoblotting.
Specifically, wild-type MEF cells were pretreated for 1 h with 10 uM of the specified compounds, followed by 2 h treatment with 0.5 uM 5z-7-oxozeaenol and 1 ng/mL TNFα. Cell lysates were prepared and immunoblotted for cleaved-caspase 3 (CC3). Wild-type Jurkat cells were also pretreated for 1 h with 10 uM of the specified compounds, followed by 12 h treatment with 50 nM Velcade. Cell lysates were prepared and immunoblotted for cleaved-caspase 3 (CC3).

[3] = target: T2, TRADD-N (Homo sapiens, UniProt Q15628); experiment: BIAcore SPR binding to TRADD-N; conditions: 25C, steady-state affinity
T2 construct: expression constructs encoding Flag-TRADD-N(1-179) and HA-TRADD-C(180-312); His (N); made in house
T2 sequence (Q15628 1-179): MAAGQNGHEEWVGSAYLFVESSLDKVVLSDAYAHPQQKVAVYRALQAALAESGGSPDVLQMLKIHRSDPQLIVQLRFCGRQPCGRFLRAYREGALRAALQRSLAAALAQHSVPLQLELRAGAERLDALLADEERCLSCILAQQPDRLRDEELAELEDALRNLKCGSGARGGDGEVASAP
Description: A series of concentrations of ICCB-19 (ranging from 0.3125 to 10 μM) was used to measure the binding kinetics, with TRADD-N immobilized on the CM5 chip.
The binding affinity between ICCB-19/Apt-1 and TRADD-N was analyzed at 25C on a BIAcore T200 machine with CM5 chips (GE Healthcare). PBS-P buffer (GE Healthcare) was used for all measurements. For surface plasmon resonance (SPR) measurements, Flag-tagged TRADD-N protein was purified from HEK293T cells by anti-Flag affinity gel and eluted by 3×Flag peptide. The protein was further purified by size exclusion chromatograph on a Superdex 75 column (GE Healthcare) in a buffer containing 20 mM imidazole (pH 6.6), 200 mM NaCl, 20 mM DTT. The protein was dialyzed into PBS and diluted to a final concentration of 40 μg/ml in NaOAc buffer (pH 4.5) before immobilization on CM5 chip. ˜5000 response units of protein were immobilized on the chip with a running buffer composed of PBS-P. Reference was used to normalize the response unit (RU) values of protein. A series of compound concentrations ranging from 0.3125 to 10 μM was tested at […] flow rate. The contact time is 100 s and dissociation time is 120 s. When the data collection was finished in each cycle, the sensor surface was regenerated with PBS-P buffer. DMSO solvent correction was performed following the BIAcore T200 Guide.

[4] = test system: Beclin 1; experiment: K63-linkage specific ubiquitination of Beclin 1 in MEFs; assay type: cell-based, mouse; conditions: 6 h
Source text: Anti-K63-linkage specific polyubiquitin antibody was used to conduct secondary immunoprecipitation. Samples were then immunoblotted with anti-Beclin 1 antibody to measure the K63-linkage specific ubiquitination of Beclin 1.

[5] = test system: H4-GFP-LC3 cells; experiment: Autophagy induction, GFP-LC3 puncta and LC3II immunoblotting; assay type: cell-based; conditions: 10 μM, 6 h (zVAD.fmk 20 μM)
Description: Mean ±s.e.m. (n=5). One-way ANOVA, post hoc Dunnett's test.
Autophagy was determined by LC3II levels using immunoblotting. SE=shorter exposure, LE=longer exposure.
Autophagy was measured by LC3II induction and p62 reduction by immunoblotting. The levels of LC3II in cells treated with both Apt-1 and NH4Cl, the latter of which inhibits lysosome, were higher than that treated with either Apt-1 or NH4Cl alone. Thus, ICCB-19/Apt-1, but not ICCB-19i, induce autophagic flux. Mean ±s.e.m. from technical triplicates (n=3), representative of 3 independent experiments. Two-tailed t-test. **P=0.0037.
Levels of LC3II determined by immunoblotting.
Cells were seeded at 2.5×10^4 cells per well on poly-L-lysine coated glass cover slips and transfected as described. Cells were fixed in 4% paraformaldehyde, followed by permeabilization with 0.1% Triton X-100. Nuclei were stained using DAPI (Sigma). Cells expressing GFP or RFP-fusion proteins were imaged with an Olympus Fluoview FV1000 confocal microscope (Olympus) using a 40×objective. For GFP-LC3 and DsRed-FYVE puncta quantification, the average spot intensity in 1000 cells from each indicated sample was determined. Images were processed using ImageJ and Photoshop CC. Concentration of compounds used to induce or block autophagy: 10 μM (Apt-1, ICCB-19, ICCB-19i or Spautin-1), for 6 h or as indicated.

[6] = test system: MEFs; experiment: RDA in MEFs induced by mTNFα and 5Z-7-Oxozeaenol, cell survival; assay type: cell-based, mouse; conditions: for protection against RDA models: 10 μM; for IC50: Mus musculus, FIG. 5c, mTNFα 1 ng/mL, 5Z-7-Oxozeaenol 0.5 μM, 8 h, read-out: IC50 of inhibition of RDA
Description: The rates of cell death were measured in triplicate or quadruplicate in a 96-well or 384-well plate by using SYTOX Green Nucleic Acid Stain (Invitrogen) or ToxiLight Non-destructive Cytotoxicity BioAssay Kit (Lonza). The intensity of luminescence was determined in an EnSpire Multimode Plate Reader (PerkinElmer). Cytotoxicity is expressed as percentages of cell death per well after deducting the background signal in non-induced cells and compared to that of the maximal cell death with 100% Lysis Reagent. The rates of cell viability were determined by using CellTiter-Glo Luminescent Cell Viability Assay (Promega) following the manufacturer's protocol and the results are expressed as percentages of luminescence intensity per well after deducting the background signal in blank well and compared to that of the viability in the non-treated wells. Concentration of drugs used for inducing or inhibiting cell death, mTNFα: 1 ng/ml; 5Z-7-Oxozeaenol: 0.5 μM; Velcade: 50 nM; Apt-1/ICCB-19/ICCB-19i/Nec-1s: 10 μM.

T1 sequence (Q13546 whole entry, species assumed): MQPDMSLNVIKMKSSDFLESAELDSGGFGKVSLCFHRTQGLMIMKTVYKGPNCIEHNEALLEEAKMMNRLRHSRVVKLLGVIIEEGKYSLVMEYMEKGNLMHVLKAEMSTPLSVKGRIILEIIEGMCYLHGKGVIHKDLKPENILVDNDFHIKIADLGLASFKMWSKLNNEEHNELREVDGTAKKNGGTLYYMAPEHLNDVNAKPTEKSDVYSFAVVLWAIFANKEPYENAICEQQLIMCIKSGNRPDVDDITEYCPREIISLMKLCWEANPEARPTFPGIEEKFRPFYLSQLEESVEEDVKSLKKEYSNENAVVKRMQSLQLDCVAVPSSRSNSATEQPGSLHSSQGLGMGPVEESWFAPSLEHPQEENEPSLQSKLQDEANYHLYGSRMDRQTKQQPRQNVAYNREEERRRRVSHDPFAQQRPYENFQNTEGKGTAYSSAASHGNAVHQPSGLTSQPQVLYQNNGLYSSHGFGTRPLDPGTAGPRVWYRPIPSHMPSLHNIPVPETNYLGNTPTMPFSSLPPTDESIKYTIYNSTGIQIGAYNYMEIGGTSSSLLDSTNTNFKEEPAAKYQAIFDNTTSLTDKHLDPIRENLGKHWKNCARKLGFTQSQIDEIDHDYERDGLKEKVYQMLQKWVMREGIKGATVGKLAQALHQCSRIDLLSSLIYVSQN

Row | SMILES | inhibition of activation of overexpressed RIPK1 [1] | cleavage of caspase-3 downstream of Velcade-induced proteasomal stress [2] | Kd [3] | Beclin 1 K63 ubiquitination [4] | induction of autophagy [5] | protection against RDA models [6] | IC50 [6]
1 | O=C(CSC1=NCCN1)NC1CCCCCC1 [ICCB-19] | cannot inhibit | blocked | 2300 nM | dramatically enhanced | effectively induced autophagy | protected against multiple RDA models | ~1000 nM
2 | CN1CCN=C1SC(C(=O)NC1CCCCCC1)c1ccccc1 (centres unmarked) [Compound 30] | cannot inhibit | blocked | 2170 nM | dramatically enhanced | effectively induced autophagy | protected against multiple RDA models | ~1000 nM
